Reference: patent US9668967B2, “Lipid formulations comprising a thiolated antioxidant” (CAMURUS AB, priority 2008, dated 2017)

What was measured:
[1] = Exploratory stability study of glucagon lipid formulations, 25° C./60% RH for 7 days (NP HPLC); assay type: physicochemical; details: for assayed GLU content as % of initial (time zero) GLU content (FIG. 3): antioxidant 0.3 wt % (BHT 0.1 wt %), compared with antioxidant-free control
Protocol: To prevent breakdown of glucagon resulting from oxidation of the methionine residue (giving Met(O)27glucagon), an antioxidant may be included in the compositions of the present invention. To establish the most suitable antioxidant, various common and less common antioxidants were tested in the peptide/lipid system of the present invention.
Note that the antioxidant content in the respective formulations, except for the reference formulations (#229 and #234), was 0.3 wt % for tocopherol (α-TOC), acsorbyl palmitate (AscPalm) and mono-thioglycerol (MTG) and 0.1 wt % for butyl hydroxytoluene (BHT). Samples containing MTG were #233 and 235.
In FIG. 3, the assayed GLU content after storage at 25° C./60% RH for 7 days is plotted as the % of initial (time zero) GLU content.
Because the assay is based on a normal phase (NP) HPLC column, degradation products with RR<1 are more hydrophobic compared with GLU whereas more hydrophilic degradation products give RR>1.

[2] = Hydrogen peroxide stress test of buprenorphine lipid formulations (HPLC); assay type: physicochemical
Protocol: Lipid formulations of BUP also containing antioxidant were prepared in the following way: First, a liquid lipid stock solution of SPC/GDO/EtOH/antioxidant (or a reference stock solution without antioxidant) in the required proportions were prepared by weighing of all components into glass vials followed by mixing by end-over-end rotation for about 8 h or until completely homogenous liquids were obtained. Thereafter, BUP (powder) was added to achieve a nominal concentration of 7.9 wt % in all cases. The antioxidants were added in an amount corresponding to common previous use in pharmaceutical products.
The following stress test was performed to evaluate the effect of the four different antioxidants (Table 1): Oxidative degradation was induced by adding 20 μL, H2O2 (30%)/mL formulation followed by equilibration of the formulations for 48 hours at RT (dark). Analysis of BUP and any oxidation degradation product (DP) in the formulations was performed by HPLC (reversed phase column) with UV detection at 288 nm.
The protective effect of different MTG concentrations was assessed by performing a stress test according to Example 1. […] The formulations were thereafter analysed by HPLC as described in Example 1 and the relative area % of the main oxidation degradation product (DP) peak (relative retention RR=1.053) was determined.

[3] = storage at 25° C./60% RH for 7 days

OCC(O)CS (stereo not drawn) [MTG, Mono-thioglycerol]
suppressing the oxidative degradation of glucagon ([1]; compared with other lipid soluble antioxidants): more efficient than other lipid soluble antioxidants
formation of Met(O)27glucagon (degradation products with RR>1, % Total Area, FIG. 4) [1, 3]: most efficient
assayed GLU content as % of initial (time zero) GLU content (FIG. 3) [1, 3]: best oxidation protection
protecting BUP from oxidation degradation in the lipid formulation, compared with reference formulation ([2]; H2O2 treated formulations, Table 2): clearly superior
protective effect of different MTG concentrations on main oxidation DP (FIG. 1) ([2]; MTG 0-1.0 wt % in BUP/SPC/GDO/EtOH=7.9/41.1/41.1/10.0 wt %, H2O2, 48 hours at RT (dark)): significant protective effect

CCCCCCCCCCCCCCCC(=O)OC[C@H](O)[C@H]1OC(=O)C(O)=C1O [AscPalm, acsorbyl palmitate, reference compound]
assayed GLU content as % of initial (time zero) GLU content (FIG. 3) [1, 3]: degrading of glucagon
